# System: Sprague Dawley rats
# Test: Rat sleep study with ECoG/EMG telemetry (sleep stage scoring)
# Format: in vivo
# Settings: averaged over seven nights
# Description: This study examined the effects of the T-type calcium channel antagonist Compound A (6-chloro-3,4-dihydro-3-ethyl-4-phenyl-4-ethyl-2(1H)-quinazolinone; PCT WO 93/04047) on sleep by using electrocorticogram (ECoG) or electroencephalographic (EEG) measures to determine the efficacy of the T-type calcium channel antagonistin the altering the states of arousal or sleep.
# Eight adult male Sprague Dawley rats (450-550 g; Taconic Farms, Germantown, N.Y.) were subcutaneously implanted with telemetric physiologic monitors (Model F50-EET; Data Sciences International, Arden Hills, Minn.) that were used to simultaneously record both the electrocorticogram (ECoG) and electromyographic (EMG) activities. […]
# Following the completion of data collection, all data were scored with automated sleep stage analysis software, Somnologica (Medcare Co.; Buffalo, N.Y.). […] Active wake was assigned to the epoch when movement of the animal was detected within the cage, or when there was an active EMG signal and the EEG consisted of alpha and beta frequency activity. An epoch was scored as light sleep when there was no movement activity, the EMG was moderately active and the EEG consisted of either theta or theta with less than 50% of the epoch showing delta activity. Delta sleep was scored when there was no movement, reduced EMG activity, and the EEG consisted of more than 50% delta wave activity (i.e. 0.5 to 4 Hz). […]
structure (smiles),measurement,setting,value
"CCN1C(=O)Nc2ccc(Cl)cc2C1(CC)c1ccccc1 (centres unmarked) [Compound A, 6-chloro-3,4-dihydro-3-ethyl-4-phenyl-4-ethyl-2(1H)-quinazolinone]",entries into awake relative to vehicle (sleep fragmentation),"FIG. 1, 30 minute bins",reduced the entries into awake relative to vehicle
same,wake duration relative to vehicle,"FIG. 2, 30 minute bins",reduced the wake duration relative to vehicle

# Reference: patent publication US20060003985A1, “Enhancement of sleep with t-type calcium channel antagonists” (priority 2002, published 2006)
